{"source": "ChEMBL document CHEMBL1139259", "about": "“Molecular modeling, synthesis, and activity studies of novel biaryl and fused-ring BACE1 inhibitors” (Bioorg Med Chem Lett, 2009)", "key": {"Beta-secretase 2": {"molecular_target": "T1, Beta-secretase 2 (Homo sapiens, UniProt Q9Y5Z0)", "T1 sequence (Q9Y5Z0 whole entry)": "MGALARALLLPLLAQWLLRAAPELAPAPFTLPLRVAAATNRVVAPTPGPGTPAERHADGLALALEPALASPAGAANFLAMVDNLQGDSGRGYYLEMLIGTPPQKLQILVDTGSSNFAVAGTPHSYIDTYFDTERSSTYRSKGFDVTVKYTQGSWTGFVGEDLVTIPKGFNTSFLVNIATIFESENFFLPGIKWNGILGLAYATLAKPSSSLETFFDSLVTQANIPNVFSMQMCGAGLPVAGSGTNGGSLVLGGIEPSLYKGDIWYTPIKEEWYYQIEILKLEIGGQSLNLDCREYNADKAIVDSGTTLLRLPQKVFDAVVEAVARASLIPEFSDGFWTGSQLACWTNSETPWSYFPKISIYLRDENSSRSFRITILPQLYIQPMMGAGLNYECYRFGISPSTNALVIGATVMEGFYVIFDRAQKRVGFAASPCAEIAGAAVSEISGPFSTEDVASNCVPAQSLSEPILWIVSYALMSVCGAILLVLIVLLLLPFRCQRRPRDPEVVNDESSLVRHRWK", "experiment": "Inhibition of BACE2 expressed in human 293T cells", "type": "cell-based"}, "Beta-secretase 1": {"molecular_target": "Beta-secretase 1 (Homo sapiens, UniProt P56817)", "sequence (P56817 whole entry)": "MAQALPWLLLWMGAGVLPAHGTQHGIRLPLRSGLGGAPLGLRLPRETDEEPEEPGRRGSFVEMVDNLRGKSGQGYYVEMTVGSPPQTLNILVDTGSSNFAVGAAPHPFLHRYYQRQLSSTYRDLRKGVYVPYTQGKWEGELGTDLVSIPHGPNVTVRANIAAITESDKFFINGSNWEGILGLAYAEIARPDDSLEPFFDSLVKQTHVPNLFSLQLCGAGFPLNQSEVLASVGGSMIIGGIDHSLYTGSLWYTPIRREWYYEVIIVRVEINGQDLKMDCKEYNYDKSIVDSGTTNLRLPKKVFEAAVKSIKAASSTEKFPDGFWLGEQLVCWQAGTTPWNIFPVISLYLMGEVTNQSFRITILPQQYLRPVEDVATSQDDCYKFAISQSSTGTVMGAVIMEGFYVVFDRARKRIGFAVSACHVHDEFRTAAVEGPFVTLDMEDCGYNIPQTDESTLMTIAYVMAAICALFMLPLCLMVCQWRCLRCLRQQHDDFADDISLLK", "description": "Inhibition of BACE1 expressed in human 293T cells"}, "N2a": {"tested_on": "N2a", "experiment": "Reduction of amyloid beta40 level in mouse N2A cells expressing Swedish mutant human APP695 at 10 uM after 24 hrs by ELISA", "type": "functional", "set-up": "scale not given: the % may be the effect or the level left"}}, "data": [{"smiles": "C[C@@H](NC(=O)c1cc(C(=O)N[C@@H](Cc2ccccc2)[C@H](O)CNC2CC2)cc(N2CCCS2(=O)=O)c1)c1ccccc1", "values": [{"measurement": "IC50", "setting": "Beta-secretase 2", "value": 141, "unit": "nM"}, {"measurement": "IC50", "setting": "Beta-secretase 1", "value": 1770, "unit": "nM"}]}, {"smiles": "C[C@@H](NC(=O)c1cc(C(=O)N[C@@H](Cc2ccccc2)[C@H](O)CNC2CC2)cc(-c2ccc(Cl)cc2)c1)c1ccccc1", "values": [{"measurement": "IC50", "setting": "Beta-secretase 2", "value": "> 100000", "unit": "nM"}, {"measurement": "IC50", "setting": "Beta-secretase 1", "value": 811, "unit": "nM"}]}, {"smiles": "C[C@@H](NC(=O)c1cc(C(=O)N[C@@H](Cc2ccccc2)[C@H](O)CNC2CC2)cc2c1CCCCO2)c1ccc(F)cc1", "values": [{"measurement": "IC50", "setting": "Beta-secretase 2", "value": 1950, "unit": "nM"}, {"measurement": "IC50", "setting": "Beta-secretase 1", "value": 262, "unit": "nM"}]}, {"smiles": "C[C@@H](NC(=O)c1cc(C(=O)N[C@@H](Cc2ccccc2)[C@H](O)CNC2CC2)cc(-c2cn(Cc3ccccc3)nn2)c1)c1ccccc1", "values": [{"measurement": "IC50", "setting": "Beta-secretase 2", "value": "> 100000", "unit": "nM"}, {"measurement": "IC50", "setting": "Beta-secretase 1", "value": 1260, "unit": "nM"}]}, {"smiles": "C[C@@H](NC(=O)c1cc(C#Cc2ccccc2)cc(C(=O)N[C@@H](Cc2ccccc2)[C@H](O)CNC2CC2)c1)c1ccccc1", "values": [{"measurement": "IC50", "setting": "Beta-secretase 2", "value": "> 100000", "unit": "nM"}, {"measurement": "IC50", "setting": "Beta-secretase 1", "value": 1120, "unit": "nM"}]}, {"smiles": "C[C@@H](NC(=O)c1cc(C(=O)N[C@@H](Cc2ccccc2)[C@H](O)CNC2CC2)cc2c1CCCO2)c1ccc(F)cc1", "values": [{"measurement": "IC50", "setting": "Beta-secretase 2", "value": 2090, "unit": "nM"}, {"measurement": "IC50", "setting": "Beta-secretase 1", "value": 740, "unit": "nM"}]}, {"smiles": "Cc1cc2c(C(=O)N[C@@H](Cc3ccccc3)[C@H](O)CNC3CC3)cc(C(=O)N[C@H](C)c3ccccc3)cc2o1", "values": [{"measurement": "IC50", "setting": "Beta-secretase 2", "value": "> 100000", "unit": "nM"}, {"measurement": "IC50", "setting": "Beta-secretase 1", "value": 998, "unit": "nM"}]}, {"smiles": "C[C@@H](NC(=O)c1cc2c(c(C(=O)N[C@@H](Cc3ccccc3)[C@H](O)CNC3CC3)c1)CCCCO2)c1ccccc1", "values": [{"measurement": "IC50", "setting": "Beta-secretase 2", "value": "> 100000", "unit": "nM"}, {"measurement": "IC50", "setting": "Beta-secretase 1", "value": 89, "unit": "nM"}]}, {"smiles": "C[C@@H](NC(=O)c1cc(C(=O)N[C@@H](Cc2ccccc2)[C@H](O)CNC2CC2)cc(-c2ccsc2)c1)c1ccccc1", "values": [{"measurement": "IC50", "setting": "Beta-secretase 2", "value": "> 100000", "unit": "nM"}, {"measurement": "IC50", "setting": "Beta-secretase 1", "value": 2230, "unit": "nM"}]}, {"smiles": "C[C@@H](NC(=O)c1cc(C(=O)N[C@@H](Cc2ccccc2)[C@H](O)CNC2CC2)cc2c1CCCO2)c1ccccc1", "values": [{"measurement": "IC50", "setting": "Beta-secretase 2", "value": "> 100000", "unit": "nM"}, {"measurement": "IC50", "setting": "Beta-secretase 1", "value": 63, "unit": "nM"}, {"measurement": "Activity", "setting": "N2a", "value": 65, "unit": "%"}]}, {"smiles": "C[C@@H](NC(=O)c1cc(C(=O)N[C@@H](Cc2ccccc2)[C@H](O)CNC2CC2)cc2c1CCCCO2)c1ccccc1", "values": [{"measurement": "IC50", "setting": "Beta-secretase 2", "value": "> 100000", "unit": "nM"}, {"measurement": "IC50", "setting": "Beta-secretase 1", "value": 56, "unit": "nM"}, {"measurement": "Activity", "setting": "N2a", "value": 35, "unit": "%"}]}, {"smiles": "COc1cc(C(=O)N[C@@H](Cc2ccccc2)[C@H](O)CNC2CC2)cc(C(=O)N[C@H](C)c2ccccc2)c1", "values": [{"measurement": "IC50", "setting": "Beta-secretase 2", "value": "> 100000", "unit": "nM"}, {"measurement": "IC50", "setting": "Beta-secretase 1", "value": 2510, "unit": "nM"}]}, {"smiles": "C[C@@H](NC(=O)c1cc(O)cc(C(=O)N[C@@H](Cc2ccccc2)[C@H](O)CNC2CC2)c1)c1ccccc1", "values": [{"measurement": "IC50", "setting": "Beta-secretase 2", "value": "> 100000", "unit": "nM"}, {"measurement": "IC50", "setting": "Beta-secretase 1", "value": 1580, "unit": "nM"}]}, {"smiles": "C[C@@H](NC(=O)c1cc(C(=O)N[C@@H](Cc2ccccc2)[C@H](O)CNC2CC2)cc(N2CCCCS2(=O)=O)c1)c1ccccc1", "values": [{"measurement": "IC50", "setting": "Beta-secretase 2", "value": 251, "unit": "nM"}, {"measurement": "IC50", "setting": "Beta-secretase 1", "value": 158, "unit": "nM"}]}, {"smiles": "Cc1cc2c(C(=O)N[C@H](C)c3ccccc3)cc(C(=O)N[C@@H](Cc3ccccc3)[C@H](O)CNC3CC3)cc2o1", "values": [{"measurement": "IC50", "setting": "Beta-secretase 2", "value": "> 100000", "unit": "nM"}, {"measurement": "IC50", "setting": "Beta-secretase 1", "value": 524, "unit": "nM"}]}, {"smiles": "C[C@@H](NC(=O)c1cc2c(c(C(=O)N[C@@H](Cc3ccccc3)[C@H](O)CNC3CC3)c1)CCCO2)c1ccccc1", "values": [{"measurement": "IC50", "setting": "Beta-secretase 2", "value": "> 100000", "unit": "nM"}, {"measurement": "IC50", "setting": "Beta-secretase 1", "value": 112, "unit": "nM"}]}, {"smiles": "C#Cc1cc(C(=O)N[C@@H](Cc2ccccc2)[C@H](O)CNC2CC2)cc(C(=O)N[C@H](C)c2ccccc2)c1", "values": [{"measurement": "IC50", "setting": "Beta-secretase 2", "value": "> 100000", "unit": "nM"}, {"measurement": "IC50", "setting": "Beta-secretase 1", "value": 889, "unit": "nM"}]}]}
